# ChEMBL document CHEMBL3046890, “Synthesis and Herbicidal Activity of Sulfonylureas; SL-950 and Its Related Compounds” (1995)
# Legend:
# Assay type in all cases: functional
# Zea mays = assay: Post emergence phyototoxic activity against Zea mays (maize) plants assessed as inhibition of plant growth at 125 g ai/ha measured 22 to 37 days after compound application under greenhouse conditions; conditions: read-out: GI
# Chenopodium album [1] = assay: Post emergence herbicidal activity against two-leaf stage Chenopodium album assessed as efficacy of weed growth control at 40 g ai/ha under greenhouse conditions
# Persicaria longiseta = assay: Post-emergence herbicidal activity against Persicaria longiseta assessed as inhibition of weed growth at 125 g ai/ha measured 22 to 37 days after compound application under greenhouse conditions; conditions: read-out: GI
# Setaria viridis [2] = assay: Post-emergence herbicidal activity against two-leaf stage Setaria viridis (green foxtail) assessed as efficacy of weed growth control at 60 g ai/ha under greenhouse conditions
# Digitaria sanguinalis = assay: Post-emergence herbicidal activity against two-leaf stage Digitaria sanguinalis (hairy crabgrass) assessed as efficacy of weed growth control at 60 g ai/ha under greenhouse conditions
# Solanum nigrum [3] = assay: Post emergence herbicidal activity against four-leaf stage Solanum nigrum (black nightshade) assessed as efficacy of weed growth control at 40 g ai/ha under greenhouse conditions
# Cyperus rotundus [4] = assay: Post-emergence herbicidal activity against four to five-leaf stage Cyperus rotundus assessed as efficacy of weed growth control at 750 g ai/ha under greenhouse conditions
# Elymus repens [5] = assay: Post-emergence herbicidal activity against three to four-leaf stage Elymus repens (couch grass) assessed as efficacy of weed growth control at 750 g ai/ha under greenhouse conditions
# Commelina communis [6] = assay: Post emergence herbicidal activity against two-leaf stage Commelina communis (Asiatic dayflower) assessed as efficacy of weed growth control at 750 g ai/ha under greenhouse conditions
# Cyperus rotundus [7] = assay: Post-emergence herbicidal activity against four to five-leaf stage Cyperus rotundus assessed as efficacy of weed growth control at 60 g ai/ha under greenhouse conditions
# Elymus repens [8] = assay: Post-emergence herbicidal activity against three to four-leaf stage Elymus repens (couch grass) assessed as efficacy of weed growth control at 60 g ai/ha under greenhouse conditions
# Commelina communis [9] = assay: Post emergence herbicidal activity against two-leaf stage Commelina communis (Asiatic dayflower) assessed as efficacy of weed growth control at 60 g ai/ha under greenhouse conditions
# Solanum nigrum [10] = assay: Post emergence herbicidal activity against four-leaf stage Solanum nigrum (black nightshade) assessed as efficacy of weed growth control at 60 g ai/ha under greenhouse conditions
# Abutilon theophrasti [11] = assay: Post-emergence herbicidal activity against one-leaf stage Abutilon theophrasti (velvetleaf) assessed as efficacy of weed growth control at 60 g ai/ha under greenhouse conditions
# Sida spinosa = assay: Post-emergence herbicidal activity against two-leaf stage Sida spinosa assessed as efficacy of weed growth control at 60 g ai/ha under greenhouse conditions
# Stellaria media = assay: Post-emergence herbicidal activity against eight-leaf stage Stellaria media assessed as efficacy of weed growth control at 60 g ai/ha under greenhouse conditions
# Galinsoga quadriradiata = assay: Post-emergence herbicidal activity against four-leafstage of Galinsoga quadriradiata assessed as efficacy of weed growth control at 60 g ai/ha under greenhouse conditions
# Cyperus microiria [12] = assay: Post-emergence herbicidal activity against three-leaf stage Cyperus microiria assessed as efficacy of weed growth control at 60 g ai/ha under greenhouse conditions
# Avena fatua [13] = assay: Post emergence herbicidal activity against three-leaf stage Avena fatua assessed as efficacy of weed growth control at 60 g ai/ha under greenhouse conditions
# Avena fatua [14] = assay: Post-emergence herbicidal activity against three-leaf stage Avena fatua assessed as efficacy of weed growth control at 80 g ai/ha under greenhouse conditions
# Setaria viridis [15] = assay: Post-emergence herbicidal activity against two-leaf stage Setaria viridis (green foxtail) assessed as efficacy of weed growth control at 80 g ai/ha under greenhouse conditions
# Senna tora [16] = assay: Post-emergence herbicidal activity against one-leaf stage Senna tora assessed as efficacy of weed growth control at 40 g ai/ha under greenhouse conditions
# Echinochloa crus-galli = assay: Post emergence herbicidal activity against three-leaf stage Echinochloa crus-galli (barnyard grass) assessed as efficacy of weed growth control at 40 g ai/ha under greenhouse conditions
# Setaria viridis [17] = assay: Post-emergence herbicidal activity against two-leaf stage Setaria viridis (green foxtail) assessed as efficacy of weed growth control at 40 g ai/ha under greenhouse conditions
# Elymus repens [18] = assay: Post-emergence herbicidal activity against three to four-leaf stage Elymus repens (couch grass) assessed as efficacy of weed growth control at 40 g ai/ha under greenhouse conditions
# Eleusine indica = assay: Post emergence herbicidal activity against three-leaf stage Eleusine indica assessed as efficacy of weed growth control at 750 g ai/ha under greenhouse conditions
# Setaria viridis [19] = assay: Post-emergence herbicidal activity against two-leaf stage Setaria viridis (green foxtail) assessed as efficacy of weed growth control at 750 g ai/ha under greenhouse conditions
# Cynodon dactylon = assay: Post-emergence herbicidal activity against 15 cm leaf stage Cynodon dactylon assessed as efficacy of weed growth control at 80 g ai/ha under greenhouse conditions
# Abutilon theophrasti [20] = assay: Post-emergence herbicidal activity against one-leaf stage Abutilon theophrasti (velvetleaf) assessed as efficacy of weed growth control at 750 g ai/ha under greenhouse conditions
# Chenopodium album [21] = assay: Post-emergence herbicidal activity against two-leaf stage Chenopodium album assessed as efficacy of weed growth control at 750 g ai/ha under greenhouse conditions
# Elymus repens [22] = assay: Post-emergence herbicidal activity against three to four-leaf stage Elymus repens (couch grass) assessed as efficacy of weed growth control at 80 g ai/ha under greenhouse conditions
# Sorghum halepense = assay: Post emergence herbicidal activity against four to five-leaf stage Sorghum halepense (Johnson grass) assessed as efficacy of weed growth control at 80 g ai/ha under greenhouse conditions
# Commelina communis [23] = assay: Post emergence herbicidal activity against two-leaf stage Commelina communis (Asiatic dayflower) assessed as efficacy of weed growth control at 80 g ai/ha under greenhouse conditions
# Solanum nigrum [24] = assay: Post emergence herbicidal activity against four-leaf stage Solanum nigrum (black nightshade) assessed as efficacy of weed growth control at 80 g ai/ha under greenhouse conditions
# Amaranthus viridis = assay: Post-emergence herbicidal activity against three-leaf stage Amaranthus viridis assessed as efficacy of weed growth control at 80 g ai/ha under greenhouse conditions
# Senna tora [25] = assay: Post-emergence herbicidal activity against one-leaf stage Senna tora assessed as efficacy of weed growth control at 80 g ai/ha under greenhouse conditions
# Abutilon theophrasti [26] = assay: Post-emergence herbicidal activity against one-leaf stage Abutilon theophrasti (velvetleaf) assessed as efficacy of weed growth control at 80 g ai/ha under greenhouse conditions
# Persicaria lapathifolia = assay: Post-emergence herbicidal activity against three-leaf stage Persicaria lapathifolia assessed as efficacy of weed growth control at 80 g ai/ha under greenhouse conditions
# Cyperus microiria [27] = assay: Post-emergence herbicidal activity against three-leaf stage Cyperus microiria assessed as efficacy of weed growth control at 80 g ai/ha under greenhouse conditions
# Xanthium strumarium = assay: Post emergence herbicidal activity against Xanthium strumarium (cocklebur) assessed as inhibition of weed growth at 125 g ai/ha measured 22 to 37 days after compound application under greenhouse conditions; conditions: read-out: GI
smiles,measurement,setting,value
COc1cc(OC)nc(NC(=O)NS(=O)(=O)c2ncccc2C(=O)N(C)C)n1 [NICOSULFURON],inhibition of growth at 125 g/ha,Zea mays,0%
same,Efficacy,Chenopodium album [1],50%
same,inhibition of growth at 125 g/ha,Persicaria longiseta,100%
same,Efficacy,Setaria viridis [2],95%
same,Efficacy,Digitaria sanguinalis,95%
same,Efficacy,Solanum nigrum [3],50%
same,Efficacy,Cyperus rotundus [4],50%
same,Efficacy,Elymus repens [5],<50%
same,Efficacy,Commelina communis [6],95%
same,Efficacy,Cyperus rotundus [7],70%
same,Efficacy,Elymus repens [8],95%
same,Efficacy,Commelina communis [9],95%
same,Efficacy,Solanum nigrum [10],50%
same,Efficacy,Abutilon theophrasti [11],50%
same,Efficacy,Sida spinosa,50%
same,Efficacy,Stellaria media,95%
same,Efficacy,Galinsoga quadriradiata,95%
same,Efficacy,Cyperus microiria [12],95%
same,Efficacy,Avena fatua [13],95%
same,Efficacy,Avena fatua [14],95%
same,Efficacy,Setaria viridis [15],95%
same,Efficacy,Senna tora [16],50%
same,Efficacy,Echinochloa crus-galli,95%
same,Efficacy,Setaria viridis [17],95%
same,Efficacy,Elymus repens [18],70%
same,Efficacy,Eleusine indica,<50%
same,Efficacy,Setaria viridis [19],70%
same,Efficacy,Cynodon dactylon,<50%
same,Efficacy,Abutilon theophrasti [20],95%
same,Efficacy,Chenopodium album [21],95%
same,Efficacy,Elymus repens [22],95%
same,Efficacy,Sorghum halepense,95%
same,Efficacy,Commelina communis [23],95%
same,Efficacy,Solanum nigrum [24],70%
same,Efficacy,Amaranthus viridis,95%
same,Efficacy,Senna tora [25],70%
same,Efficacy,Abutilon theophrasti [26],70%
same,Efficacy,Persicaria lapathifolia,95%
same,Efficacy,Cyperus microiria [27],95%
same,inhibition of growth at 125 g/ha,Xanthium strumarium,100%
